Source: patent US9617267B2, “Compounds and methods for kinase modulation, and indications therefor” (Plexxikon Inc., priority 2009, dated 2017)

Assay: Relative solubility by turbidity threshold concentration in aqueous buffers (pH 1.5, 4.5, 6.8, 7.4)
Type: physicochemical
Details: for turbidity threshold (L, M, H) 1.4: pH 1.4 [sic] (method: SGF pH 1.5); for turbidity threshold (L, M, H) 6.8: pH 6.8 (SIF); for turbidity threshold (L, M, H) 7.4: pH 7.4 (HEPES); for turbidity threshold (L, M, H) 4.5: pH 4.5 (SIF)
Procedure: As an indication of relative solubility, the turbidity of compounds in aqueous solutions is assessed. To assess possible compound properties in different physiological compartments, such as stomach, intestine, and blood, a series of aqueous buffers with varying pH is used. Thus each compound is diluted into four different physiologically relevant buffers and solution turbidity is measured by spectrophotometry.
Compounds are dissolved at a concentration of 25 mM in dimethyl sulfoxide, then serially diluted 1:1 into a 96 well plate, diluting 10 times in pure dimethyl sulfoxide, with the final well of each row a dimethyl sulfoxide blank. In an assay plate, 99 μL of appropriate buffer is added to each well, and 1 μL of each sample dilution is added to the buffer, achieving a range of final total concentrations in aqueous solutions having different pH. The buffers used are Simulated Gastric Fluid (SGF-pH 1.5) 0.5M NaCl, pH 1.5; Simulated Intestinal fluid (SIF-pH 4.5 and pH 6.8) 0.05M NaH2PO4, pH 4.5 and 6.8; and Hepes Buffer (HEPES-pH 7.4) 10 mM HEPES, 150 mM NaCl, pH 7.4. Control compounds pyrene, estriol and propranolol HCl are also assessed. Plates are spun and then mixed for 1 minute, and the absorbance is read using a Tecan Safire II to read wavelengths in the visible range (490, 535, and 650 nm) at four locations per well, reflecting the degree of turbidity present. The average optical density for each wavelength in each well is graphed vs. compound concentration, and the concentration at which the curve crosses a threshold O.D. of 0.01 for each wavelength is reported as the endpoint turbidity assay result. The average of the three wavelengths is used to compare turbidity of compounds. Compounds are considered to have low solubility if the threshold concentration is <31.3 μM, moderate solubility if the threshold concentration is 31.3 μM to 250 μM, and high solubility if the threshold concentration is >250 μm.
The following table indicates the relative solubility (L=low, M=moderate, H=high) based on turbidity threshold concentration at each pH for exemplary compounds according to the invention as indicated: […]

SMILES | turbidity threshold (L, M, H) 1.4 | turbidity threshold (L, M, H) 6.8 | turbidity threshold (L, M, H) 7.4 | turbidity threshold (L, M, H) 4.5
CCCS(=O)(=O)Nc1ccc(F)c(C(=O)c2c[nH]c3ncnc(CC(C)C)c23)c1F [P-1014, Propane-1-sulfonic acid [2,4-difluoro-3-(4-isobutyl-7H-pyrrolo[2,3-d]pyrimidine-5-carbonyl)-phenyl]-amide] | M (moderate solubility if the threshold concentration is 31.3 μM to 250 μM) | M (moderate solubility if the threshold concentration is 31.3 μM to 250 μM) | M (moderate solubility if the threshold concentration is 31.3 μM to 250 μM) | –
CCCS(=O)(=O)Nc1ccc(F)c(C(=O)c2c[nH]c3ncnc(NC4CC4)c23)c1F [P-1041, Propane-1-sulfonic acid [3-(4-cyclopropylamino-7H-pyrrolo[2,3-d]pyrimidine-5-carbonyl)-2,4-difluoro-phenyl]-amide] | H (high solubility if the threshold concentration is >250 μm) | M (moderate solubility if the threshold concentration is 31.3 μM to 250 μM) | M (moderate solubility if the threshold concentration is 31.3 μM to 250 μM) | M (moderate solubility if the threshold concentration is 31.3 μM to 250 μM)
CCCS(=O)(=O)Nc1ccc(F)c(C(=O)c2c[nH]c3ncnc(NC(C)C)c23)c1F [P-1051, Propane-1-sulfonic acid [2,4-difluoro-3-(4-isopropylamino-7H-pyrrolo[2,3-d]pyrimidine-5-carbonyl)-phenyl]-amide] | H (high solubility if the threshold concentration is >250 μm) | M (moderate solubility if the threshold concentration is 31.3 μM to 250 μM) | M (moderate solubility if the threshold concentration is 31.3 μM to 250 μM) | M (moderate solubility if the threshold concentration is 31.3 μM to 250 μM)
CCCS(=O)(=O)Nc1ccc(F)c(C(=O)c2c[nH]c3ncnc(Nc4ccncc4)c23)c1F [P-1076, Propane-1-sulfonic acid {2,4-difluoro-3-[4-(pyridin-4-ylamino)-7H-pyrrolo[2,3-d]pyrimidine-5-carbonyl]-phenyl}-amide] | H (high solubility if the threshold concentration is >250 μm) | H (high solubility if the threshold concentration is >250 μm) | H (high solubility if the threshold concentration is >250 μm) | H (high solubility if the threshold concentration is >250 μm)
CCCS(=O)(=O)Nc1ccc(F)c(C(=O)c2c[nH]c3ncnc(Nc4cccc(Cl)c4)c23)c1F [P-1084, Propane-1-sulfonic acid {3-[4-(3-chloro-phenylamino)-7H-pyrrolo[2,3-d]pyrimidine-5-carbonyl]-2,4-difluoro-phenyl}-amide] | M (moderate solubility if the threshold concentration is 31.3 μM to 250 μM) | M (moderate solubility if the threshold concentration is 31.3 μM to 250 μM) | M (moderate solubility if the threshold concentration is 31.3 μM to 250 μM) | M (moderate solubility if the threshold concentration is 31.3 μM to 250 μM)
CCCS(=O)(=O)Nc1ccc(F)c(C(=O)c2c[nH]c3ncnc(Nc4cccc(OC)c4)c23)c1F [P-1085, Propane-1-sulfonic acid {2,4-difluoro-3-[4-(3-methoxy-phenylamino)-7H-pyrrolo[2,3-d]pyrimidine-5-carbonyl]-phenyl}-amide] | L (low solubility if the threshold concentration is <31.3 μM) | L (low solubility if the threshold concentration is <31.3 μM) | L (low solubility if the threshold concentration is <31.3 μM) | L (low solubility if the threshold concentration is <31.3 μM)
CCCS(=O)(=O)Nc1ccc(F)c(C(=O)c2c[nH]c3ncnc(Nc4ccc(Cl)cc4)c23)c1F [P-1087, Propane-1-sulfonic acid {3-[4-(4-chloro-phenylamino)-7H-pyrrolo[2,3-d]pyrimidine-5-carbonyl]-2,4-difluoro-phenyl}-amide] | M (moderate solubility if the threshold concentration is 31.3 μM to 250 μM) | M (moderate solubility if the threshold concentration is 31.3 μM to 250 μM) | M (moderate solubility if the threshold concentration is 31.3 μM to 250 μM) | L (low solubility if the threshold concentration is <31.3 μM)
CCCS(=O)(=O)Nc1ccc(F)c(C(=O)c2c[nH]c3ncnc(NCC(C)C)c23)c1F [P-1088, Propane-1-sulfonic acid [2,4-difluoro-3-(4-isobutylamino-7H-pyrrolo[2,3-d]pyrimidine-5-carbonyl)-phenyl]-amide] | M (moderate solubility if the threshold concentration is 31.3 μM to 250 μM) | L (low solubility if the threshold concentration is <31.3 μM) | L (low solubility if the threshold concentration is <31.3 μM) | L (low solubility if the threshold concentration is <31.3 μM)
CCCS(=O)(=O)Nc1ccc(F)c(C(=O)c2c[nH]c3ncnc(Nc4cccc(F)c4)c23)c1F [P-1094, Propane-1-sulfonic acid {2,4-difluoro-3-[4-(3-fluoro-phenylamino)-7H-pyrrolo[2,3-d]pyrimidine-5-carbonyl]-phenyl}-amide] | L (low solubility if the threshold concentration is <31.3 μM) | M (moderate solubility if the threshold concentration is 31.3 μM to 250 μM) | L (low solubility if the threshold concentration is <31.3 μM) | L (low solubility if the threshold concentration is <31.3 μM)
CCCS(=O)(=O)Nc1ccc(F)c(C(=O)c2c[nH]c3ncnc(NC4CCN(CC)CC4)c23)c1F [P-1095, Propane-1-sulfonic acid {3-[4-(1-ethyl-piperidin-4-ylamino)-7H-pyrrolo[2,3-d]pyrimidine-5-carbonyl]-2,4-difluoro-phenyl}-amide] | H (high solubility if the threshold concentration is >250 μm) | H (high solubility if the threshold concentration is >250 μm) | H (high solubility if the threshold concentration is >250 μm) | H (high solubility if the threshold concentration is >250 μm)
CCCS(=O)(=O)Nc1ccc(F)c(C(=O)c2c[nH]c3ncnc(Nc4cnn(CC)c4)c23)c1F [P-1099, Propane-1-sulfonic acid {3-[4-(1-ethyl-1H-pyrazol-4-ylamino)-7H-pyrrolo[2,3-d]pyrimidine-5-carbonyl]-2,4-difluoro-phenyl}-amide] | M (moderate solubility if the threshold concentration is 31.3 μM to 250 μM) | M (moderate solubility if the threshold concentration is 31.3 μM to 250 μM) | M (moderate solubility if the threshold concentration is 31.3 μM to 250 μM) | L (low solubility if the threshold concentration is <31.3 μM)
Cc1nn(C)cc1Nc1ncnc2[nH]cc(C(=O)c3c(F)ccc(NS(=O)(=O)c4cc(F)ccc4F)c3F)c12 [P-1143, N-{3-[4-(1,3-Dimethyl-1H-pyrazol-4-ylamino)-7H-pyrrolo[2,3-d]pyrimidine-5-carbonyl]-2,4-difluoro-phenyl}-2,5-difluoro-benzenesulfonamide] | L (low solubility if the threshold concentration is <31.3 μM) | L (low solubility if the threshold concentration is <31.3 μM) | L (low solubility if the threshold concentration is <31.3 μM) | L (low solubility if the threshold concentration is <31.3 μM)
